Assay results taken from article PMC11672294, “The Antipsychotic Drug Aripiprazole Suppresses Colorectal Cancer by Targeting LAMP2a to Induce RNH1/miR‐99a/mTOR‐Mediated Autophagy and Apoptosis” (Advanced Science, 2024).
Structures can show the parent of a compound that is named as a salt. Residues, ends and D or L forms follow the SMILES beside them.

These compounds were tested on HT29. Details: 72 h, relative to DMSO, 10 µM, Relative cell viability (%).
From the text: To investigate the key signaling pathways and biological processes involved in CRC progression, we analyzed the National Center for Biotechnology Information Gene Expression Omnibus (GEO) dataset GSE115313, which included 42 CRC and paired normal tissues (Figure 1A). […] Next, we performed an Annexin V‐fluorescein isothiocyanate (FITC)/propidium iodide (PI) staining assay to determine the effect of aripiprazole on apoptosis in CRC cells. […] A) Principal component analysis of GEO dataset (GSE115313), which includes 42 CRC and paired normal tissues. B) Gene Ontology pathway analysis of the DEPs between CRC and paired normal tissues. […] D) Schematic diagram for identifying anticancer drugs amongst an US Food and Drug Administration‐approved small‐molecule library (616 compounds) using WST‐1 assay. E) HT29 cells were treated with the 616 drugs (10 µM) individually or with dimethyl sulfoxide for 72 h, followed by WST‐1 assay. […] J) Mice bearing HT29‐derived tumor xenografts were intragastrically administered with aripiprazole (10 or 20 mg kg^−1) once every 2 d, n = 6 mice/group. […] Bars, SD; ^* p < 0.05; ^** p < 0.01; ^*** p < 0.001; ns, no significant difference. The WST‐1 Cell Proliferation and Cytotoxicity Assay Kit (Beyotime Biotechnology, Shanghai, China) was used to measure cell viability, as described previously.^[ [10] ^] CRC cells were seeded into 96‐well plates and treated with different drug concentrations. Following that, WST‐1 was added to the plate and incubated with the cells for 2 h, at 37 °C. Absorbance at the wavelength of 450 nm was measured using an automated microplate spectrophotometer (BioTek Instruments, Winooski, VT, USA).

| Structure (SMILES) | Relative cell viability (%) |
| --- | --- |
| COc1ccc(C[C@@H]2c3cc(OC)c(OC)cc3CC[N@+]2(C)CCC(=O)OCCCCCOC(=O)CC[N@@+]2(C)CCc3cc(OC)c(OC)cc3[C@H]2Cc2ccc(OC)c(OC)c2)cc1OC [Atracurium Besylate] | 91.95% |
| Cc1c(-c2ccc(O)cc2)n(Cc2ccc(OCCN3CCCCCC3)cc2)c2ccc(O)cc12 [Bazedoxifene Acetate] | 88.41% |
| Cc1c(-c2ccc(O)cc2)n(Cc2ccc(OCCN3CCCCCC3)cc2)c2ccc(O)cc12 [Bazedoxifene HCl] | 91.36% |
| CC(C)NCC(O)COc1ccc(CCOCC2CC2)cc1 (centres unmarked) [Betaxolol hydrochloride (Betoptic)] | 100.8% |
| CC(C)NCC(O)COc1ccc(CCOCC2CC2)cc1 (centres unmarked) [Betaxolol] | 109.6% |
| COc1ccccc1Oc1c(NS(=O)(=O)c2ccc(C(C)(C)C)cc2)nc(-c2ncccn2)nc1OCCO [Bosentan Hydrate] | 83.98% |
| COc1ccccc1Oc1c(NS(=O)(=O)c2ccc(C(C)(C)C)cc2)nc(-c2ncccn2)nc1OCCO [Bosentan] | 63.94% |

Same assay, conditions: 72 h, relative to DMSO; 10 µM

| Structure (SMILES) | Relative cell viability (%) |
| --- | --- |
| CO[C@H]1O[C@@H]2O[C@@]3(C)CC[C@H]4[C@H](C)CC[C@@H]([C@H]1C)[C@@]24OO3 [Artemether] | 126.1% |
| C[C@@H]1CC[C@H]2[C@@H](C)C(=O)O[C@@H]3O[C@@]4(C)CC[C@@H]1[C@]32OO4 [Artemisinin] | 110.1% |
| COC(=O)[C@H](Cc1ccccc1)NC(=O)[C@@H](N)CC(=O)O [Aspartame] (H-Asp-Phe-OMe) | 199.9% |
| CC(=O)Oc1ccccc1C(=O)O [Aspirin] | 63.59% |
| NC(=O)[C@@H](CCC(F)(F)F)N(Cc1ccc(-c2ncon2)cc1F)S(=O)(=O)c1ccc(Cl)cc1 [Avagacestat (BMS-708163)] | 74.3% |
| COc1ccc(C(=O)CC(=O)c2ccc(C(C)(C)C)cc2)cc1 [Avobenzone] | 117.3% |
| Nc1ncn([C@@H]2O[C@H](CO)[C@@H](O)[C@H]2O)c(=O)n1 [Azacitidine] | 56.36% |
| O=C(CCCN1CCN(c2ccccn2)CC1)c1ccc(F)cc1 [Azaperone] | 93.03% |
| CC1=C(C(=O)OC(C)C)C(c2cccc([N+](=O)[O-])c2)C(C(=O)OC2CN(C(c3ccccc3)c3ccccc3)C2)=C(N)N1 (centres unmarked) [Azelnidipine] | 73.79% |
| CCOc1nc2cccc(C(=O)OCc3oc(=O)oc3C)c2n1Cc1ccc(-c2ccccc2-c2noc(=O)[nH]2)cc1 [Azilsartan Medoxomil] | 116% |
| CCOc1nc2cccc(C(=O)O)c2n1Cc1ccc(-c2ccccc2-c2noc(=O)[nH]2)cc1 [Azilsartan] | 73.79% |
| CC[C@H]1OC(=O)[C@H](C)[C@@H](O[C@H]2C[C@@](C)(OC)[C@@H](O)[C@H](C)O2)[C@H](C)[C@@H](O[C@@H]2O[C@H](C)C[C@H](N(C)C)[C@H]2O)[C@](C)(O)C[C@@H](C)CN(C)[C@H](C)[C@@H](O)[C@]1(C)O [Azithromycin] | 33.47% |
| CCc1cc(/C(C)=N/OCc2ccc(C3CCCCC3)c(C(F)(F)F)c2)ccc1CN1CC(C(=O)O)C1 [BAF312 (Siponimod)] | 107.265% |
| Cc1nc(NC(=O)N2CCC[C@H]2C(N)=O)sc1-c1ccnc(C(C)(C)C(F)(F)F)c1 [BYL719] | 50.49% |
| Cc1ccc(NC(=O)c2ccc(CN3CC[C@H](N(C)C)C3)c(C(F)(F)F)c2)cc1Nc1nccc(-c2cncnc2)n1 [Bafetinib (INNO-406)] | 4.206% |
| CNC1CCCN(c2c(F)cc3c(=O)c(C(=O)O)cn(C4CC4)c3c2OC)C1 (centres unmarked) [Balofloxacin] | 111.9% |
| CNC(=O)[C@H](Cc1ccccc1)NC(=O)[C@H](CC(C)C)[C@H](CSc1cccs1)C(=O)NO [Batimastat (BB-94)] | 103.4% |
| CCC1(C)CC(=O)NC(=O)C1 [Bemegride] | 88.48% |
| CCOC(=O)[C@H](CCc1ccccc1)N[C@H]1CCc2ccccc2N(CC(=O)O)C1=O [Benazepril HCl] | 72.74% |
| NC(CO)C(=O)NNCc1ccc(O)c(O)c1O (centres unmarked) [Benserazide HCl] | 108.4% |
| CCc1oc2ccccc2c1C(=O)c1cc(Br)c(O)c(Br)c1 [Benzbromarone] | 82.12% |
| CCOC(=O)c1ccc(N)cc1 [Benzocaine] | 80.303% |
| O=C(O)CCCN1CCC(O[C@@H](c2ccc(Cl)cc2)c2ccccn2)CC1 [Bepotastine Besilate] | 89.81% |
| O=C(O)CCNC(=O)c1ccccc1 [Betamipron] | 90.303% |
| CC(C[N+](C)(C)C)OC(N)=O (centres unmarked) [Bethanechol chloride] | 104.3% |
| C=C(c1ccc(C(=O)O)cc1)c1cc2c(cc1C)C(C)(C)CCC2(C)C [Bexarotene] | 134.4% |

| Structure (SMILES) | Relative cell viability (%) |
| --- | --- |
| c1ccc(-c2ccc(C(c3ccccc3)n3ccnc3)cc2)cc1 (centres unmarked) [Bifonazole] | 88.14% |
| CC[C@H](NC(=O)[C@H](C)NC)C(=O)N1C[C@@H](O)C[C@H]1Cc1c(-c2[nH]c3cc(F)ccc3c2C[C@@H]2C[C@H](O)CN2C(=O)[C@H](CC)NC(=O)[C@H](C)NC)[nH]c2cc(F)ccc12 [Birinapant] | 132.9% |
| Cc1c(N)nc([C@H](CC(N)=O)NC[C@H](N)C(N)=O)nc1C(=O)N[C@H](C(=O)N[C@H](C)[C@@H](O)[C@H](C)C(=O)N[C@H](C(=O)NCCc1nc(-c2nc(C(=O)NCCC[S+](C)C)cs2)cs1)[C@@H](C)O)[C@@H](O[C@@H]1O[C@@H](CO)[C@@H](O)[C@H](O)[C@@H]1O[C@H]1O[C@H](CO)[C@@H](O)[C@H](OC(N)=O)[C@@H]1O)c1c[nH]cn1 [Bleomycin Sulfate] | 74.3% |
| Nc1c(CC(=O)O)cccc1C(=O)c1ccc(Br)cc1 [Bromfenac Sodium] | 78.48% |
| CN(Cc1cc(Br)cc(Br)c1N)C1CCCCC1 [Bromhexine HCl] | 122.9% |
| Oc1c(Br)cc(Br)c2cccnc12 [Broxyquinoline] | 83.94% |
| CCCC1O[C@@H]2C[C@H]3[C@@H]4CCC5=CC(=O)C=C[C@]5(C)[C@H]4[C@@H](O)C[C@]3(C)[C@]2(C(=O)CO)O1 (some centres unmarked) [Budesonide] | 83.64% |
| CCCCOc1ccc(CC(=O)NO)cc1 [Bufexamac] | 101.5% |
| COc1cc(OC)c(C(=O)CCCN2CCCC2)c(OC)c1 [Buflomedil HCl] | 34.47% |
| CCCCNc1cc(C(=O)O)cc(S(N)(=O)=O)c1Oc1ccccc1 [Bumetanide] | 61.84% |
| CCCCN1CCCCC1C(=O)Nc1c(C)cccc1C (centres unmarked) [Bupivacaine HCl] | 106.7% |
| O=C1CC2(CCCC2)CC(=O)N1CCCCN1CCN(c2ncccn2)CC1 [Buspirone HCl] | 73.94% |
| Clc1ccc(CCC(Cn2ccnc2)Sc2c(Cl)cccc2Cl)cc1 (centres unmarked) [Butoconazole nitrate] | 63.98% |
| CC[C@H](Nc1ncnc2[nH]cnc12)c1nc2cccc(F)c2c(=O)n1-c1ccccc1 [CAL-101 (Idelalisib, GS-1101)] | 112.6% |
| NC(=O)c1cc(N2CC2)c([N+](=O)[O-])cc1[N+](=O)[O-] [CB1954] | 115% |
| C=CC(=O)Nc1cccc(Nc2nc(Nc3ccc(N4CCN(C(C)=O)CC4)cc3OC)ncc2C(F)(F)F)c1 [CO-1686 (AVL-301)] | 16.24% |
| O=C(O)c1ccc2c(c1)nc(Nc1cccc(Cl)c1)c1ccncc12 [CX-4945 (Silmitasertib)] | 120.8% |
| CO[C@H]1C(=O)[C@]2(C)[C@@H](OC)C[C@H]3OC[C@@]3(OC(C)=O)[C@H]2[C@H](OC(=O)c2ccccc2)[C@]2(O)C[C@H](OC(=O)[C@H](O)[C@@H](NC(=O)OC(C)(C)C)c3ccccc3)C(C)=C1C2(C)C [Cabazitaxel] | 12.62% |
| CN(C)C(=O)COC(=O)Cc1ccc(OC(=O)c2ccc(NC(=N)N)cc2)cc1 [Camostat Mesilate] | 140.8% |
| Cc1ccc([C@@H]2O[C@H](CO)[C@@H](O)[C@H](O)[C@H]2O)cc1Cc1ccc(-c2ccc(F)cc2)s1 [Canagliflozin] | 72.33% |
| CCOc1nc2cccc(C(=O)OC(C)OC(=O)OC3CCCCC3)c2n1Cc1ccc(-c2ccccc2-c2nnn[nH]2)cc1 (centres unmarked) [Candesartan Cilexetil] | 195.6% |
| C[C@H](CS)C(=O)N1CCC[C@H]1C(=O)O [Captopril] | 243.5% |
| CN1C2=CC(=O)/C(=N\NC(N)=O)C=C2CC1S(=O)(=O)O (centres unmarked) [Carbazochrome sodium sulfonate (AC-17)] | 50.49% |
| C[C@@](Cc1ccc(O)c(O)c1)(NN)C(=O)O [Carbidopa] | 97.03% |
| CC(C)C[C@H](NC(=O)[C@H](CCc1ccccc1)NC(=O)CN1CCOCC1)C(=O)N[C@@H](Cc1ccccc1)C(=O)N[C@@H](CC(C)C)C(=O)[C@@]1(C)CO1 [Carfilzomib (PR-171)] | 15.53% |
| CCCCCCNC(=O)n1cc(F)c(=O)[nH]c1=O [Carmofur] | 24.45% |
